The target of one series is Cathepsin B (CB) (Homo sapiens, UniProt P07858). Briefly: in vitro release study of PADM in CB solution. It counts as biochemical. As to conditions: 37° C., read-out: half-life of ADM release. From the text:
(§1) Activated CB cleaves the Phe-Lys dipeptide at the Lys-PABC bond. Then, the exposed PABC spacer spontaneously decarboxylates upon deacylation and free ADM molecules are released.

A short description of series [1]: in vitro release study of PADM in human plasma. It counts as in vitro ADME. To be noted: over 6-7 h in human plasma.
Excerpt: as §1

Turning to `COc1cccc2c1C(=O)c1c(O)c3c(c(O)c1C2=O)C[C@@](O)(C(=O)CO)C[C@@H]3O[C@H]1C[C@H](NC(=O)OCc2ccc(NC(=O)[C@H](CCCCN)NC(=O)[C@H](Cc3ccccc3)NC(C)=O)cc2)[C@H](O)[C@H](C)O1` [PADM, Ac-Phe-Lys-PABC-ADM], the half-life on Cathepsin B (CB) was determined as 16 min. Besides, the “changes (ADM release) in human plasma” value in series [1] is “no changes were observed”.

The record behind these values is US20150335761A1, “COMPOSITIONS AND METHODS FOR CONTRACEPTION” (priority 2012, published 2015).
